Laboratory results from patent US20050120397A1, “Compounds and methods for regulation of spermatid differentiation” (priority 2003, published 2005).
“Also recorded” adds a separate entry of the source. Residues, ends and D or L forms follow the SMILES beside them. *: point of attachment. Cbz = O=C(OCc1ccccc1)*; CH2F = FC*

B1: p35: baculoviral broad-spectrum caspase inhibitor p35, expressed in male gonads via the GAL4/UAS system (protein, UniProt P08160 1-299, looked up)
Early 35 kDa protein: MCVIFPVEIDVSQTIIRDCQVDKQTRELVYINKIMNTQLTKPVLMMFNISGPIRSVTRKNNNLRDRIKSKVDEQFDQLERDYSDQMDGFHDSIKYFKDEHYSVSCQNGSVLKSKFAKILKSHDYTDKKSIEAYEKYCLPKLVDERNDYYVAVCVLKPGFENGSNQVLSFEYNPIGNKVIVPFAHEINDTGLYEYDVVAYVDSVQFDGEQFEEFVQSLILPSSFKNSEKVLYYNEASKNKSMIYKALEFTTESSWGKSEKYNWKIFCNGFIYDKKSKVLYVKLHNVTSALNKNVILNTIK

Assays:
[1] = tested on: spermatid individualization in cultured testes; test: Testes cultures with caspase inhibitor (spermatid individualization); format: cell-based, Drosophila; conditions: isolated testes cultured 24-26 hours at 25° C. with 30 mm Z-VAD(OMe)-FMK
Procedure: At least 20 testes were examined for each experiment described. Testes of young adults were dissected in testis buffer (TB) which consisted of: 10 mM Tris-HCl, pH 6.8, 183 mM KCl, 47 mM NaCl, 1 mM EDTA, and 1 mM PMSF. Dissected testes were transferred to a […] droplet of TB placed on a siliconized coverslip (GOLD SEAL), opened using thin forceps, and sandwiched with a poly-L-lysine-coated slide. The sandwich was frozen in liquid nitrogen, the coverslip was removed with a razor blade, and the slide was placed in ice-cold absolute ethanol. The slides were drained and a hydrophobic ring surrounding the opaque tissue was drawn using a PAP PEN (Zymed Laboratories Inc.). The tissue was fixed in 4% formaldehyde in PBS for 20 minutes, rinsed twice with PBS for 5 minutes, incubated in PBT (PBS+0.1% Triton X-100) for 30 minutes, and rinsed twice again. The fixed testes were then blocked with PBS/BSA (1% BSA in PBS) for 45 minutes, incubated with primary antibody (diluted in PBS/BSA) within the hydrophobic ring overnight at […] inside a humid chamber, and rinsed twice for 5 minutes in PBS. […] Caspase inhibition of IC caudal movement was determined in vitro, using isolated pairs of testes from young adult flies (n=10). […]

drICE = molecular target: T1, drICE (Drosophila melanogaster, UniProt O01382); conditions: cited from earlier work
T1 sequence (O01382 29-217 limits assumed): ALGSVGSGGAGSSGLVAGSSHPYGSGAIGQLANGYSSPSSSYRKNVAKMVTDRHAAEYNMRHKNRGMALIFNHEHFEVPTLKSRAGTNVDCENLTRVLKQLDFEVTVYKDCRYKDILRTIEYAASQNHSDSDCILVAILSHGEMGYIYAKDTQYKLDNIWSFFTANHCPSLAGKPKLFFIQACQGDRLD
T1 sequence (O01382 231-339 limits assumed): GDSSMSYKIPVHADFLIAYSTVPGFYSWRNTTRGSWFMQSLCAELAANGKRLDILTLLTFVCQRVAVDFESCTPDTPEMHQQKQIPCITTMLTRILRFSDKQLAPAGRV

Drosophila S2 cells = conditions: cited from earlier work
[2] = tested on: spermatid individualization and male fertility; test: Expression of p35 in male gonads (Hsp83-gal4 x UAS-p35): fertility test and cytological analysis; format: in vivo, Drosophila
[3] = ectopic expression of p35 in male germ cells

Row | Molecule | IC (individualization complex) translocation ([1]; versus DMSO control) | cystic bulge (CB) morphology / collection of cytoplasm into CBs ([1]; versus DMSO control testis of same individual) | activity of drICE in vitro (drICE) | drICE-induced cell death (Drosophila S2 cells) | CM1-staining (active drICE) [2, 3] | spermatid individualization / CB and WB morphology in vivo [2, 3] | IC translocation in vivo ([2]; male progeny with Hsp83-gal4 driver and UAS-p35 construct) | male fertility ([2]; male progeny with Hsp83-gal4 driver and UAS-p35 construct, parental lines fertile)
1 | COC(=O)C[C@H](NC(=O)[C@H](C)NC(=O)[C@@H](NC(=O)OCc1ccccc1)C(C)C)C(=O)CF [Z-VAD, Z-VAD(OMe)-FMK] (Cbz-Val-Ala-Asp(OMe)-CH2F) | no evidence of IC translocation | advanced CBs that appeared flat; also recorded: flat, irregular CBs | blocks the activity of drICE in vitro | blocks | – | – | – | –
2 | B1 | – | – | – | – | failing to block CM1-staining | the cytoplasm failed to collect to form a normal CB; also recorded: blocked individualization; also recorded: scattered IC cones and flat CBs and WBs | IC translocation was severely impaired | sterile
